Source: publication PMC2990605 (British Journal of Cancer, 2010)

Experiment: Adverse events (CTCAEv3.0), worst grade per patient regardless of relation, and laboratory parameters
Format: in vivo
Details: for Alanine aminotransferase increased, CTCAE grade 5, patients / Alopecia, CTCAE grade 5, patients / Anaemia, CTCAE grade 5, patients / Anorexia, CTCAE grade 5, patients / Arthralgia, CTCAE grade 5, patients / Back pain, CTCAE grade 5, patients / Blood bilirubin, CTCAE grade 5, patients / Bronchitis, CTCAE grade 5, patients / Constipation, CTCAE grade 5, patients / Cough, CTCAE grade 5, patients / Cystitis, CTCAE grade 5, patients / Dehydration, CTCAE grade 5, patients / Diabetes mellitus, CTCAE grade 5, patients / Diarrhoea, CTCAE grade 5, patients / Dizziness, CTCAE grade 5, patients / Drug hypersensitivity, CTCAE grade 5, patients / Dry skin, CTCAE grade 5, patients / Dyspnoea, CTCAE grade 5, patients / Eosinophilic myocarditis, CTCAE grade 5, patients / Erythema, CTCAE grade 5, patients / Fatigue, CTCAE grade 5, patients / Gastric dilatation, CTCAE grade 5, patients / General physical health deterioration, CTCAE grade 5, patients / Hypercalcaemia, CTCAE grade 5, patients / Hyperglycaemia, CTCAE grade 5, patients / Hyperhidrosis, CTCAE grade 5, patients / Leukopenia, CTCAE grade 5, patients / Malaise, CTCAE grade 5, patients / Mucosal inflammation, CTCAE grade 5, patients / Myalgia, CTCAE grade 5, patients / Nasopharyngitis, CTCAE grade 5, patients / Nausea, CTCAE grade 5, patients / Neutropenia, CTCAE grade 5, patients / Oedema peripheral, CTCAE grade 5, patients / Oedema, CTCAE grade 5, patients / Peripheral sensory neuropathy, CTCAE grade 5, patients / Pollakiuria, CTCAE grade 5, patients / Pruritus, CTCAE grade 5, patients / Pulmonary embolism, CTCAE grade 5, patients / Pyrexia, CTCAE grade 5, patients / Rash, CTCAE grade 5, patients / Spinal cord compression, CTCAE grade 5, patients / Tumour pain, CTCAE grade 5, patients / Urinary tract infection, CTCAE grade 5, patients / Vomiting, CTCAE grade 5, patients / γ-glutamyltransferase increased, CTCAE grade 5, patients: with paclitaxel
Description: Toxicity was evaluated according to common toxicity criteria for adverse events (CTCAEv3.0). The MTD was defined as the dose level(s) at which at least two out of six patients developed DLT.
Toxicity assessment, haematology and clinical biochemistry were performed at baseline and weekly during the study. Physical and ECOG performance status were recorded at baseline and before the next cycle.

CC(C)C[C@@H](C(=O)N[C@H](C(=O)OC1CCCC1)c1ccccc1)[C@H](O)C(=O)NO [tosedostat]
Alanine aminotransferase increased, CTCAE grade 5, patients (all cycles): 0
Alopecia, CTCAE grade 5, patients (all cycles): 0
Anaemia, CTCAE grade 5, patients (all cycles): 0
Anorexia, CTCAE grade 5, patients (all cycles): 0
Arthralgia, CTCAE grade 5, patients (all cycles): 0
Back pain, CTCAE grade 5, patients (all cycles): 0
Blood bilirubin, CTCAE grade 5, patients (all cycles): 0
Bronchitis, CTCAE grade 5, patients (all cycles): 0
Constipation, CTCAE grade 5, patients (all cycles): 0
Cough, CTCAE grade 5, patients (all cycles): 0
Cystitis, CTCAE grade 5, patients (all cycles): 0
Dehydration, CTCAE grade 5, patients (all cycles): 0
Diabetes mellitus, CTCAE grade 5, patients (all cycles): 0
Diarrhoea, CTCAE grade 5, patients (all cycles): 0
Dizziness, CTCAE grade 5, patients (all cycles): 0
Drug hypersensitivity, CTCAE grade 5, patients (all cycles): 0
Dry skin, CTCAE grade 5, patients (all cycles): 0
Dyspnoea, CTCAE grade 5, patients (all cycles): 0
Eosinophilic myocarditis, CTCAE grade 5, patients (all cycles): 1
Erythema, CTCAE grade 5, patients (all cycles): 0
Fatigue, CTCAE grade 5, patients (all cycles): 0
Gastric dilatation, CTCAE grade 5, patients (all cycles): 0
General physical health deterioration, CTCAE grade 5, patients (all cycles): 0
Hypercalcaemia, CTCAE grade 5, patients (all cycles): 0
Hyperglycaemia, CTCAE grade 5, patients (all cycles): 0
Hyperhidrosis, CTCAE grade 5, patients (all cycles): 0
Leukopenia, CTCAE grade 5, patients (all cycles): 0
Malaise, CTCAE grade 5, patients (all cycles): 0
Mucosal inflammation, CTCAE grade 5, patients (all cycles): 0
Myalgia, CTCAE grade 5, patients (all cycles): 0
Nasopharyngitis, CTCAE grade 5, patients (all cycles): 0
Nausea, CTCAE grade 5, patients (all cycles): 0
Neutropenia, CTCAE grade 5, patients (all cycles): 0
Oedema peripheral, CTCAE grade 5, patients (all cycles): 0
Oedema, CTCAE grade 5, patients (all cycles): 0
Peripheral sensory neuropathy, CTCAE grade 5, patients (all cycles): 0
Pollakiuria, CTCAE grade 5, patients (all cycles): 0
Pruritus, CTCAE grade 5, patients (all cycles): 0
Pulmonary embolism, CTCAE grade 5, patients (all cycles): 0
Pyrexia, CTCAE grade 5, patients (all cycles): 0
Rash, CTCAE grade 5, patients (all cycles): 0
Spinal cord compression, CTCAE grade 5, patients (all cycles): 0
Tumour pain, CTCAE grade 5, patients (all cycles): 0
Urinary tract infection, CTCAE grade 5, patients (all cycles): 0
Vomiting, CTCAE grade 5, patients (all cycles): 0
γ-glutamyltransferase increased, CTCAE grade 5, patients (all cycles): 0
Alanine aminotransferase increased, CTCAE grade 5, patients (first 21 days): 0
Alopecia, CTCAE grade 5, patients (first 21 days): 0
Anaemia, CTCAE grade 5, patients (first 21 days): 0
Anorexia, CTCAE grade 5, patients (first 21 days): 0
Arthralgia, CTCAE grade 5, patients (first 21 days): 0
Back pain, CTCAE grade 5, patients (first 21 days): 0
Blood bilirubin, CTCAE grade 5, patients (first 21 days): 0
Bronchitis, CTCAE grade 5, patients (first 21 days): 0
Constipation, CTCAE grade 5, patients (first 21 days): 0
Cough, CTCAE grade 5, patients (first 21 days): 0
Cystitis, CTCAE grade 5, patients (first 21 days): 0
Dehydration, CTCAE grade 5, patients (first 21 days): 0
Diabetes mellitus, CTCAE grade 5, patients (first 21 days): 0
Diarrhoea, CTCAE grade 5, patients (first 21 days): 0
Dizziness, CTCAE grade 5, patients (first 21 days): 0
Drug hypersensitivity, CTCAE grade 5, patients (first 21 days): 0
Dry skin, CTCAE grade 5, patients (first 21 days): 0
Dyspnoea, CTCAE grade 5, patients (first 21 days): 0
Eosinophilic myocarditis, CTCAE grade 5, patients (first 21 days): 0
Erythema, CTCAE grade 5, patients (first 21 days): 0
Fatigue, CTCAE grade 5, patients (first 21 days): 0
Gastric dilatation, CTCAE grade 5, patients (first 21 days): 0
General physical health deterioration, CTCAE grade 5, patients (first 21 days): 0
Hypercalcaemia, CTCAE grade 5, patients (first 21 days): 0
Hyperglycaemia, CTCAE grade 5, patients (first 21 days): 0
Hyperhidrosis, CTCAE grade 5, patients (first 21 days): 0
Leukopenia, CTCAE grade 5, patients (first 21 days): 0
Malaise, CTCAE grade 5, patients (first 21 days): 0
Mucosal inflammation, CTCAE grade 5, patients (first 21 days): 0
Myalgia, CTCAE grade 5, patients (first 21 days): 0
Nasopharyngitis, CTCAE grade 5, patients (first 21 days): 0
Nausea, CTCAE grade 5, patients (first 21 days): 0
Neutropenia, CTCAE grade 5, patients (first 21 days): 0
Oedema peripheral, CTCAE grade 5, patients (first 21 days): 0
Oedema, CTCAE grade 5, patients (first 21 days): 0
Peripheral sensory neuropathy, CTCAE grade 5, patients (first 21 days): 0
Pollakiuria, CTCAE grade 5, patients (first 21 days): 0
Pruritus, CTCAE grade 5, patients (first 21 days): 0
Pulmonary embolism, CTCAE grade 5, patients (first 21 days): 0
Pyrexia, CTCAE grade 5, patients (first 21 days): 0
Rash, CTCAE grade 5, patients (first 21 days): 0
Spinal cord compression, CTCAE grade 5, patients (first 21 days): 0
Tumour pain, CTCAE grade 5, patients (first 21 days): 0
Urinary tract infection, CTCAE grade 5, patients (first 21 days): 0
Vomiting, CTCAE grade 5, patients (first 21 days): 0
γ-glutamyltransferase increased, CTCAE grade 5, patients (first 21 days): 0
Alanine aminotransferase increased, CTCAE grade 1, patients (human, in vivo): 1
Alanine aminotransferase increased, CTCAE grade 2, patients (human, in vivo): 1
Alanine aminotransferase increased, CTCAE grade 3, patients (human, in vivo): 1
Alanine aminotransferase increased, CTCAE grade 4, patients (human, in vivo): 0
Alanine aminotransferase increased, patients with events, % (human, in vivo): 14%
Alopecia, CTCAE grade 2, patients (human, in vivo): 20
Alopecia, CTCAE grade 3, patients (human, in vivo): 0
Alopecia, CTCAE grade 4, patients (human, in vivo): 0
Alopecia, patients with events, % (human, in vivo): 95%
Anaemia, CTCAE grade 1, patients (human, in vivo): 1
Anaemia, CTCAE grade 4, patients (human, in vivo): 0
Anorexia, CTCAE grade 1, patients (human, in vivo): 6
Anorexia, CTCAE grade 2, patients (human, in vivo): 2
Anorexia, CTCAE grade 3, patients (human, in vivo): 2
Anorexia, CTCAE grade 4, patients (human, in vivo): 0
Anorexia, patients with events, % (human, in vivo): 45%
Arthralgia, CTCAE grade 1, patients (human, in vivo): 5
Arthralgia, CTCAE grade 2, patients (human, in vivo): 0
Arthralgia, CTCAE grade 3, patients (human, in vivo): 0
Arthralgia, CTCAE grade 4, patients (human, in vivo): 0
Arthralgia, patients with events, % (human, in vivo): 23%
Back pain, CTCAE grade 1, patients (human, in vivo): 3
Back pain, CTCAE grade 2, patients (human, in vivo): 2
Back pain, CTCAE grade 3, patients (human, in vivo): 0
Back pain, CTCAE grade 4, patients (human, in vivo): 0
Back pain, patients with events, % (human, in vivo): 23%
Blood bilirubin, CTCAE grade 1, patients (human, in vivo): 0
Blood bilirubin, CTCAE grade 2, patients (human, in vivo): 0
Blood bilirubin, CTCAE grade 3, patients (human, in vivo): 1
Blood bilirubin, CTCAE grade 4, patients (human, in vivo): 0
Blood bilirubin, patients with events, % (human, in vivo): 5%
Bronchitis, CTCAE grade 1, patients (human, in vivo): 0
Bronchitis, CTCAE grade 2, patients (human, in vivo): 0
Bronchitis, CTCAE grade 3, patients (human, in vivo): 1
Bronchitis, CTCAE grade 4, patients (human, in vivo): 0
Bronchitis, patients with events, % (human, in vivo): 5%
Constipation, CTCAE grade 1, patients (human, in vivo): 3
Constipation, CTCAE grade 2, patients (human, in vivo): 3
Constipation, CTCAE grade 3, patients (human, in vivo): 0
Constipation, CTCAE grade 4, patients (human, in vivo): 0
Constipation, patients with events, % (human, in vivo): 27%
Cough, CTCAE grade 1, patients (human, in vivo): 8
Cough, CTCAE grade 2, patients (human, in vivo): 1
